{"source": "patent US20100120738A1", "about": "“ANTI-APOPTOTIC BENZODIAZEPINE RECEPTOR LIGAND INHIBITORS” (priority 2006, published 2010)", "key": {"[1]": {"tested_on": "Bovine capillary endothelial cells", "experiment": "Cytotoxicity/necrosis of non-irradiated cells (LDH release, field number)", "type": "cell-based", "method": "Bovine capillary endothelial cells were cultured on eight-chamber Labtek slides and exposed to ionizing radiation (20 Gy), which was calibrated using an X-ray exposure meter. […] In control experiments, cells either received no ionizing radiation (sham) or no compound. After 6 h incubation, the cells were fixed in methanol and stained with 5 μg/ml 4,6-diamidino-2-phenylindole (DAPI). DNA was visualized using a Nikon epifluorescence microscope, and apoptosis was scored and expressed as an apoptotic index (% apoptotic cells in a field of 100). […] Field number was also calculated for all other compounds tested as a control (results not shown).\nTo determine cytotoxicity of the compounds under these conditions, duplicate samples of the cells receiving a dose of compound at each concentration tested in the absence of a dose of ionizing radiation were assayed for release of LDH into the culture medium."}, "[2]": {"tested_on": "Bovine capillary endothelial cells", "experiment": "Protection against radiation-induced apoptosis (DAPI apoptotic index)", "type": "cell-based", "conditions": "low doses; FIG. 13 and FIG. 14", "method": "Bovine capillary endothelial cells were cultured on eight chamber Labtek slides and exposed to ionizing radiation (20 Gy) for 6 hours. After this time, cells were either left untreated or treated with compound at the concentration indicated on the x-axis. Cells were then fixed in methanol and stained with 5 μg/ml DAPI and DNA was visualized using a Nikon epifluorescence microscope, and apoptosis scored and expressed as an apoptotic index according to the percentage of apoptotic cells in a field of 100 cells. Open bars indicate apoptotic index following irradiation. Hatched bars indicate apoptotic index for control cells not receiving a dose of ionizing radiation.\nBovine capillary endothelial cells were cultured on eight-chamber Labtek slides and exposed to ionizing radiation (20 Gy), which was calibrated using an X-ray exposure meter. […] In control experiments, cells either received no ionizing radiation (sham) or no compound. After 6 h incubation, the cells were fixed in methanol and stained with 5 μg/ml 4,6-diamidino-2-phenylindole (DAPI). DNA was visualized using a Nikon epifluorescence microscope, and apoptosis was scored and expressed as an apoptotic index (% apoptotic cells in a field of 100)."}, "[3]": {"experiment": "Stability in USP simulated gastric fluid (SGF)", "type": "in vitro ADME", "conditions": "37° C., pH approx. 1.2", "description": "Aliquots of SGF were withdrawn and intact compound quantitated by HPLC-UV."}, "[4]": {"experiment": "Oral bioavailability in vivo, plasma levels by LC-MS/MS after intragastric gavage", "design": "species or system rat", "method": "FIG. 18 is a graphical representation showing the bioavailability in vivo for the compounds {[{(Porphine-5,15-diyl)bis[cyclopropyl-diyl]}](2-)-N^21,N^22,N^23,N^24} manganese(III) acetate (EUK-418) and {[{(Porphine-5,15-diyl)bis[benzyl-diyl]}](2-)-N^21,N^22,N^23,N^24} manganese(III) acetate (EUK-423) in rats. Fasted and fed Sprague-Dawley rats were dosed by intragastric gavage with either 4 mg/kg EUK-418 or 2 mg/kg EUK-423. At the times indicated on the x-axis, plasma was obtained from the animals and the concentrations of compounds determined by LC-MS/MS.\nFasted and fed Sprague-Dawley rats were dosed by intragastric gavage with either 4 mg/kg EUK-418 or 2 mg/kg EUK-423. At time points up to 7 hr post-administration, animals were sacrificed, their blood collected over heparin, plasma samples prepared by centrifugation, and plasma levels of the compounds were determined by LC-MS/MS."}, "PC12 cells": {"tested_on": "PC12 cells", "experiment": "Protection against STS-induced apoptosis in PC12 cells (XTT viability assay)", "type": "cell-based, rat", "method": "Rat pheochromocytoma (PC12) cells were cultured in collagen-coated 96-well plates according to directions provided by the American Type Culture Collection. Staurosporine was added at various concentrations sufficient to induce apoptosis. Test compounds were added together with the staurosporine. Cells were incubated overnight at 37° C., 5% CO2. After 18-24 hours, test media was removed and cell viability was determined using the XTT viability assay described by Baker et al., J. Pharmacol. Exp, Therapeutics 284, 215-221, 1998, the contents of which are incorporated herein by reference."}, "[5]": {"experiment": "Superoxide dismutase (SOD) activity", "type": "biochemical"}, "[6]": {"tested_on": "cultured mesencephalic tissue slices", "experiment": "MPP+ induced neurodegeneration in cultured mesencephalic tissue slices (LDH release)", "type": "cell-based, rat", "conditions": "20 μM MPP+; compound 100 nM, 1.0 μM, 10 μM; FIG. 17", "method": "FIG. 17 is a graphical representation showing the effects of exemplary low molecular weight metalloporphyrin compounds of the present invention on MPP+ induced neurodegeneration in cultured mesencephalic tissue slices. Mesencephalic tissue slices were prepared from PND 3-5 rats and maintained in culture for 2 weeks. The tissue slices were incubated with a porphyrin compound as indicated on the x-axis for 6 hours before adding 20 μM MPP+ to induce neuronal apoptosis. Concentrations of each porphyrin compound tested were 100 nM ? 1.0 μM ? and 10 μM ? Following a further incubation for 48 hours, the slices were collected and the level of lactate dehydrogenase (LDH) released into the medium was determined."}, "[7]": {"experiment": "Lipophilicity by octanol partitioning", "type": "physicochemical", "conditions": "octanol-water", "method": "To indicate the likelihood that the compounds will cross lipid membranes and be absorbed once administered by oral means, their lipophilicities were determined by octanol partitioning. […] Quantitation was performed by HPLC-UV."}, "[8]": {"experiment": "Brain uptake (brain level over plasma level)", "type": "in vivo", "conditions": "above 20 ul/g indicates delivery across the blood-brain barrier", "method": "In further studies, compounds are administered orally to animals as described above, or alternatively, by daily i.p. injection for up to five days at concentrations of about 0.3 mg/kg body weight, 3.0 mg/kg and 30 mg/kg. The animals are then sacrificed and their brains removed and snap-frozen in liquid nitrogen. The brains are homogenized in methanol containing 5% TCA, and the soluble fraction is prepared by centrifugation.\nLevels of compounds in the brain tissue are determined by LC-MS (HPLLC, Waters; Mass Spectrometer, Micromass Quattro). The half-life of each compound administered to the animals is determined over a period of time from about 5 minutes up to about 2 days.\nBrain bioavailability is determined by calculating brain uptake at all time points. Brain uptake is the ratio of brain levels (as moles/g tissue) over plasma levels (as […] and is expressed as ul/g. One gram of brain tissue contains approximately 20 ul of plasma. Thus, any brain uptake value above 20 ul/g is indicative of delivery across the blood-brain barrier to the brain parenchyma. For example, the brain uptake values for EUK-418 are in excess of about 100 ul/g."}}, "note": "pIC50: −log10 of the molar value. Where two headings read alike, the source gives them in different places.", "data": [{"smiles": "C1=Cc2nc1cc1ccc([n-]1)c(C1CC1)c1nc(cc3ccc([n-]3)c2C2CC2)C=C1.CC(=O)[O-].[Mn+3]", "note": "[EUK-418, {[{(Porphine-5,15-diyl)bis[cyclopropyl-diyl]}](2-)-N^21,N^22,N^23,N^24} manganese(III) acetate]", "values": [{"measurement": "necrosis at the protective concentration", "setting": "[1]; 3 μM EUK-418, about 3-10 μM EUK-423", "result": "failed to induce noticeable necrosis"}, {"measurement": "concentration causing significant increase in field number for control cells, indicating cytotoxicity", "setting": "[1]; control cells without ionizing radiation", "result": "≥ 30", "unit": "µM"}, {"measurement": "protection of cells exposed to ionizing radiation", "setting": "[2]", "result": "protected"}, {"measurement": "Percentage remaining after 90 mins in SGF", "setting": "[3]", "result": 92.2, "unit": "%"}, {"measurement": "effect of fasting of animals on plasma concentration", "setting": "[4]; 4 mg/kg intragastric gavage", "result": "increase plasma concentration"}, {"measurement": "plasma concentration to which compound declined for the assayed period", "setting": "[4]; 4 mg/kg intragastric gavage, fasted rats, up to 7 hr", "result": "about 100 ng/ml"}, {"measurement": "plasma time course", "setting": "[4]; intragastric gavage, 4 mg/kg EUK-418 or 2 mg/kg EUK-423", "result": "increased rapidly in serum of fasted rats"}, {"measurement": "found in plasma / bioavailable after oral administration", "setting": "[4]; intragastric gavage, 4 mg/kg EUK-418 or 2 mg/kg EUK-423, fasted and fed rats", "result": "bioavailable in vivo"}, {"measurement": "effect on staurosporine-induced apoptosis of PC12 cells", "setting": "PC12 cells; FIG. 11", "result": "effectively reduce apoptosis"}, {"measurement": "effect on staurosporine-induced apoptosis of PC12 cells", "setting": "PC12 cells; FIG. 12, at up to about 5 μM concentration, toxicity blunts protection at high concentrations", "result": "effectively reduce apoptosis"}, {"measurement": "pIC50", "setting": "[5]; cuvette format, read-out: Cuvette IC50", "result": 5.08}, {"measurement": "pIC50", "setting": "[5]; microplate format, read-out: Microplate IC50", "result": 6.42}, {"measurement": "prevention of cytotoxicity induced by MPP+", "setting": "[6]", "result": "prevent cytotoxicity"}, {"measurement": "Log10 P value", "setting": "[7]", "result": "0.548 ± 0.009"}, {"measurement": "P value (octanol partitioning coefficient)", "setting": "[7]", "result": "3.53 ± 0.14"}, {"measurement": "brain uptake value (brain level / plasma level)", "setting": "[8]", "result": "> 100", "unit": "µL/g"}]}]}
